Reference: patent US8329705B2, “Substituted triazolo-pyrazine compounds” (ArQule, Inc., priority 2009, dated 2012)

Key:
DLD-1 cancer cells = assay: MTS assay, DLD-1 cells; assay type: cell-based; parameters: concentration or dose not given beside the values
Description: (§1) Cells were maintained at 37° C., 5% CO2 in DMEM media supplemented with 1% fetal bovine serum, penicillin/streptomycin and fungizone (Invitrogen). Cells were seeded into 96-well tissue culture plates at 3000 per well and cultured at 37° C. for 18 hours. Test compounds were dissolved and diluted to 300× in DMSO then diluted 1:40 in DMEM. Cells were incubated with test compounds for 72 hours followed by incubation with tetrazolium compound (3-(4,5-dimethylthiazol-2-yl)-5-(3-carboxymethoxyphenyl)-2-(4-sulfophenyl)-2H-tetrazolium, inner salt; MTS) and the electron coupling reagent, phenazine methosulfate (PMS) for 4 hours. […] The ability of compounds to inhibit cell growth in this assay is correlated with the reduction of dehydrogenase enzyme activity found in metabolically active cells. The measurement of the absorbance of the formazan was assessed using a Victor (Perkin Elmer) microplate reader at 492 nm. The calculated IC50 value is the concentration of the test compound that causes a 50% decrease in the absorbance. Percent inhibition by representative compounds of the present invention in MDA-MB231 and DLD-1 cancer cells is shown in Table 4.

MDA-MB-231 cancer cells = assay: MTS assay, MDA-MB-231 cells; assay type: cell-based; parameters: concentration or dose not given beside the values
Description: as §1

FGFR2 (N549H) = target: T1, FGFR2 (N549H) (Homo sapiens, UniProt P21802, N549H); assay: FGFR2 kinase activity assay (fluorescent ELISA); assay type: biochemical; details: 30 μM compound
T1 construct: purchased Millipore 14-742
T1 sequence (P21802 22-821 N549H): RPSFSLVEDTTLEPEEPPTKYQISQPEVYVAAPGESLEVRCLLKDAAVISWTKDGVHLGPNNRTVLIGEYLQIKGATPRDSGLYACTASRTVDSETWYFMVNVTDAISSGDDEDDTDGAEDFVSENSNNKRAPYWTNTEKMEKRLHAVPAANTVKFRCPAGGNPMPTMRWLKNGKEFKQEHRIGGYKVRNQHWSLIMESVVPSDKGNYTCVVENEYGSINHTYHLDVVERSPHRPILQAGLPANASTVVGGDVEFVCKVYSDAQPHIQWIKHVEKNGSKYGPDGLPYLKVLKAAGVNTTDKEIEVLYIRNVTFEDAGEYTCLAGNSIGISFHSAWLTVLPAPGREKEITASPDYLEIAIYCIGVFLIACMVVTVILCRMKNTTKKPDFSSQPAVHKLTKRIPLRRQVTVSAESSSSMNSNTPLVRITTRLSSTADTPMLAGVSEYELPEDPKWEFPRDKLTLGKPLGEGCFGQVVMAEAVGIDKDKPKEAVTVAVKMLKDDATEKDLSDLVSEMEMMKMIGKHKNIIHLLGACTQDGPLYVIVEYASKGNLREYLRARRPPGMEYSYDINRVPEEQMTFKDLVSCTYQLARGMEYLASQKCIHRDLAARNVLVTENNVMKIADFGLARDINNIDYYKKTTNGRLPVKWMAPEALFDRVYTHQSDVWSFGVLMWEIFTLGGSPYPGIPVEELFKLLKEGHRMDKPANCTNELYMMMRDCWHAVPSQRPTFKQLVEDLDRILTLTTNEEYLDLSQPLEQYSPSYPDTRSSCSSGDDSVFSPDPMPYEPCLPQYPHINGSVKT
Description: A fluorescent ELISA assay was developed to identify and characterize inhibitors of FGFR2 kinase. This heterogeneous assay utilized a biotinylated peptide with a tyrosine motif as a substrate and an anti-phospho-tyrosine antibody to measure phosphorylation of the substrate. The reaction was initiated by adding a test compound, 37 uM Pyk2 substrate (Midwest Biotech, cat. #MBT2383), 12.5 uM ATP (Roche, cat. #11 140 965 001), and 0.5 uM FGFR2 enzyme (Millipore, cat. #14-742) sequentially to a non-binding polypropylene V-well plate. All reagents were in assay buffer consisting of: 50 mM Tris-HCL, 0.02 mg/mL BSA, 10 mM MgCl2, 0.1 mM Na3VO4, 1 mM EGTA, […], 0.01% NP-40, 2 mM DTT, 10% Glycerol. The reaction was incubated for 60 minutes. As the reaction proceeded, FGFR2 phosphorylated tyrosines in the peptide. The reaction mixture was then moved to a blocked streptavidin coated Nunc Maxisorb plate (coated with 100 ng streptavidin from Pierce (cat #15-124) per well) allowing for the capture of the biotinylated peptide. Peptide was captured for 30 minutes at room temperature, the phosphorylation of peptide continues during this phase. The reaction was stopped by washing the Streptavidin plate 6 times with TBST. Phosphorylated peptide was detected by adding anti-phospho tyrosine antibody (purchased from Cell Signaling, cat. #9411, diluted 1:3000), unbound antibody was removed by washing 6 times with TBST. Secondary detection was performed using Alkaline Phosphatase tagged goat anti-mouse antibody (purchased from Pierce, cat. #31320, diluted 1:4000) for one hour. Unbound secondary antibody was removed by washing 6 times with TBST.
The fluorescent readout was initiated by the addition of Promega Attophos substrate (purchased from Promega; Kit catalog number: S1000, dilution=6 mg/10 mL), which when dephosphorylated by Alkaline phosphatase emitted a fluorescent signal of […] when excited by a signal […]. This reading was done on the Perkin Elmer Envision system. […] The signal was directly proportional to the activity of FGFR2 and compound inhibition of FGFR2 was monitored by a decrease in signal.

Row | Structure (SMILES) | inhibition at 30 µM (FGFR2 (N549H)) | DLD-1, MTS, 72 hours (% Inhibition) (DLD-1 cancer cells) | MDA-MB-231, MTS, 72 hours (% inhibition) (MDA-MB-231 cancer cells)
1 | COc1cccc(Nc2nccn3c(NC(=O)OC(C)C)nnc23)c1 [Compound 5] |  | 96% | 98%
2 | Cc1ccnc(N(Cc2ccccc2)c2nccn3c(NC(=O)OC(C)C)nnc23)c1 [Compound 8, Isopropyl {8-[benzyl(4-methylpyridin-2-yl)amino][1,2,4]triazolo[4,3-a]pyrazin-3-yl}carbamate] |  | 99% | 94%
3 | CC(C)OC(=O)Nc1nnc2c(NCCC3CCCN3C)nccn12 (centres unmarked) [Compound 21, Isopropyl (8-{[2-(1-methylpyrrolidin-2-yl)ethyl]amino}[1,2,4]triazolo[4,3-a]pyrazin-3-yl)carbamate] |  | 58% | 69%
4 | CC(C)OC(=O)Nc1nnc2c(N3CCCCC3)nccn12 [Compound 59, isopropyl (8-piperidin-1-yl[1,2,4]triazolo[4,3-a]pyrazin-3-yl)carbamate] | 82.5% | 48% | 53%
5 | CC(C)OC(=O)Nc1nnc2c(N3CCC(n4c(=O)[nH]c5cc(Cl)ccc54)CC3)nccn12 [Compound 82, isopropyl {8-[4-(5-chloro-2-oxo-2,3-dihydro-1H-benzimidazol-1-yl)piperidin-1-yl][1,2,4]triazolo[4,3-a]pyrazin-3-yl}carbamate] | 65.2% | 97% | 92%
6 | Cc1ccc(CCNc2nccn3c(N)nnc23)cc1 [Compound 90, N^8-[2-(4-methylphenyl)ethyl][1,2,4]triazolo[4,3-a]pyrazine-3,8-diamine] | 60.8% | 89% | 81%
7 | Nc1nnc2c(NCCc3ccc(Oc4ccccc4)cc3)nccn12 [Compound 93, N^8-[2-(4-phenoxyphenyl)ethyl][1,2,4]triazolo[4,3-a]pyrazine-3,8-diamine] | 82.9% | 98% | 99%
8 | Nc1nnc2c(NCCc3ccc(Cl)cc3)nccn12 [Compound 115, N^8-[2-(4-chlorophenyl)ethyl][1,2,4]triazolo[4,3-a]pyrazine-3,8-diamine] | 71.6% | 98% | 99%
9 | COc1ccc(CCNc2nccn3c(N)nnc23)cc1 [Compound 117, N^8-[2-(4-methoxyphenyl)ethyl][1,2,4] triazolo[4,3-a]pyrazine-3,8-diamine] |  | 97% | 99%
10 | Nc1nnc2c(NCCc3ccccc3)nccn12 [Compound 136, N^8-(2-phenylethyl)[1,2,4]triazolo [4,3-a]pyrazine-3,8-diamine] |  | 97% | 76%
11 | Nc1nnc2c(NCc3ccc(Br)cc3)nccn12 [Compound 140, N^8-(4-bromobenzyl)[1,2,4]triazolo[4,3-a]pyrazine-3,8-diamine] | 52.9% |  | 
12 | Nc1nnc2c(Nc3cccc(Br)c3)nccn12 [Compound 142, N^8-(3-bromophenyl)[1,2,4]triazolo[4,3-a]pyrazine-3,8-diamine] | 59.9% |  | 
13 | COc1ccc(N(C)c2nccn3c(N)nnc23)cc1 [Compound 152, N^8-(4-methoxyphenyl)-N^8-methyl[1,2,4]triazolo[4,3-a]pyrazine-3,8-diamine] | 109% |  | 
14 | COc1ccc(Cl)c(Nc2nccn3c(N)nnc23)c1 [Compound 154, N^8-(2-chloro-5-methoxyphenyl)[1,2,4]triazolo[4,3-a]pyrazine-3,8-diamine] | 82.8% |  | 
15 | CN(c1cccc(Cl)c1)c1nccn2c(N)nnc12 [Compound 155, N^8-(3-chlorophenyl)-N^8-methyl[1,2,4]triazolo[4,3-a]pyrazine-3,8-diamine] | 57.4% |  | 

The next lines start with results.

Row | inhibition at 30 µM (FGFR2 (N549H)) | Structure (SMILES) | DLD-1, MTS, 72 hours (% Inhibition) (DLD-1 cancer cells) | MDA-MB-231, MTS, 72 hours (% inhibition) (MDA-MB-231 cancer cells)
16 | 51% | COc1ccccc1CNc1nccn2c(NC(=O)OC(C)C)nnc12 [Compound 15, isopropyl {8-[(2-methoxybenzyl)amino][1,2,4]triazolo[4,3-a]pyrazin-3-yl}carbamate] | 98% | 83%
17 | 100% | CC(C)OC(=O)Nc1nnc2c(NCc3ccc(C(C)(C)C)cc3)nccn12 [Compound 22, isopropyl {8-[(4-tert-butylbenzyl)amino][1,2,4]triazolo[4,3-a]pyrazin-3-yl}carbamate] | 98% | 99%
18 | 78.3% | COc1ccccc1Nc1nccn2c(NC(=O)OC(C)C)nnc12 [Compound 39, isopropyl {8-[(2-methoxyphenyl)amino][1,2,4]triazolo[4,3-a]pyrazin-3-yl}carbamate] | 97% | 97%
19 | 95.1% | CC(C)OC(=O)Nc1nnc2c(Nc3ccc(Br)cc3)nccn12 [Compound 52, isopropyl {8-[(4-bromophenyl)amino][1,2,4]triazolo[4,3-a]pyrazin-3-yl}carbamate] | 97% | 98%
20 | 68.1% | CC(C)OC(=O)Nc1nnc2c(N(C)c3ccccn3)nccn12 [Compound 53, isopropyl {8-[methyl(pyridin-2-yl)amino][1,2,4]triazolo[4,3-a]pyrazin-3-yl}carbamate] | 96% | 99%
21 | 80.6% | COc1ccccc1CCNc1nccn2c(NC(=O)OC(C)C)nnc12 [Compound 58, isopropyl (8-{[2-(2-methoxyphenyl)ethyl]amino}[1,2,4]triazolo[4,3-a]pyrazin-3-yl)carbamate] | 10% | 59%
22 | 74.2% | CCc1ccc(CCNc2nccn3c(NC(=O)OC(C)C)nnc23)cc1 [Compound 62, isopropyl (8-{[2-(4-ethylphenyl)ethyl]amino}[1,2,4]triazolo[4,3-a]pyrazin-3-yl)carbamate] | 93% | 78%
23 | 75.7% | CCN(c1ccccc1C)c1nccn2c(NC(=O)OC(C)C)nnc12 [Compound 63, isopropyl {8-[ethyl(2-methylphenyl)amino][1,2,4]triazolo[4,3-a]pyrazin-3-yl}carbamate] | 98% | 76%
24 | 57.2% | CCN(c1cc(O)ccc1C)c1nccn2c(NC(=O)OC(C)C)nnc12 [Compound 64, isopropyl {8-[ethyl(5-hydroxy-2-methylphenyl)amino][1,2,4]triazolo[4,3-a]pyrazin-3-yl}carbamate] | 26% | 51%
25 | 96.9% | CC(C)OC(=O)Nc1nnc2c(NCc3cccc(C(F)(F)F)c3)nccn12 [Compound 81, isopropyl (8-{[3-(trifluoromethyl)benzyl]amino}[1,2,4]triazolo[4,3-a]pyrazin-3-yl)carbamate] | 98% | 99%
26 | 88.8% | CC(C)OC(=O)Nc1nnc2c(NCc3cccc(F)c3)nccn12 [Compound 86, isopropyl {8-[(3-fluorobenzyl)amino][1,2,4]triazolo[4,3-a]pyrazin-3-yl}carbamate] | 97% | 98%
27 | 73.2% | Nc1nnc2c(NCc3ccccc3C(F)(F)F)nccn12 [Compound 143, N^8-[2-(trifluoromethyl)benzyl][1,2,4]triazolo[4,3-a]pyrazine-3,8-diamine] |  | 
28 | 72.9% | Nc1nnc2c(NCc3ccccc3F)nccn12 [Compound 153, N^8-(2-fluorobenzyl)[1,2,4]triazolo[4,3-a]pyrazine-3,8-diamine] |  | 
